Data from US9938335B2, “Glucagon and GLP-1 co-agonist compounds” (Eli Lilly and Company, priority 2015, dated 2018).
Marks after values point to notes of the source that are not given here.

Assays:
Type in all cases: in vivo, mouse
[1] = system: DIO mice (C57BL/6); assay: Oral Glucose Tolerance Test (OGTT) in DIO mice; details: male DIO mice, OGTT (2 g/kg) 16 hours post injection
Description: Diet-induced obese (DIO) mouse model is a model of insulin resistance. Five to six months old male DIO mice (C57BL/6) from Taconic Biosciences are used in this study. Animals are individually housed in a temperature-controlled (24° C.) facility with a 12 hour light/dark cycle (lights on 06:00), and free access to food and water. The acclimation period to the facility is two weeks. The day before the study, animals are randomized into groups based on their body weight. That same afternoon, animals are fasted in clean cages and dosed with vehicle (40 mM Tris-HCl, pH 8.0) or test articles by subcutaneous injection. The following morning, 16 hours post the peptide injection, fasting body weights are obtained to calculate glucose doses. Blood samples are taken to measure time zero glucose. Animals are then given an oral gavage of glucose (2 g/kg). Two glucose readings via glucometers were obtained at 15, 30, 60 and 120 minutes post oral glucose. The average of two glucose readings is reported at each time point and an area under the curve is calculated. Statistics were analyzed using ANOVA with Dunnett's comparison by JMP 6; significance is denoted at p≤0.05 vs. vehicle.

[2] = system: STZ-treated DIO mice (C57BL/6); assay: OGTT in Streptozotocin (STZ)-treated DIO mice; details: male STZ mice, OGTT (2 g/kg) 16 hours post injection
Description: STZ-treated mouse model is a model of early diabetes. Five to six months old male DIO mice (C57BL/6) from Taconic Biosciences are used in this study. Animals are individually housed in a temperature-controlled (24° C.) facility with a 12 hour light/dark cycle (lights on 6:00), and free access to food and water. After two weeks acclimation to the facility, mice are injected intraperitoneally with 50 mg/kg of STZ on Tuesday and Friday. Two weeks post the injection, animals with glucose levels between 180-300 mg/dL at 09:00 are selected for the OGTT study. The day before the study, animals are randomized into groups based on body weight and their glucose levels. Animals are treated with vehicle or testing articles by subcutaneous injection just prior to food removal overnight (16:00). The following morning at 08:00, 16 hours post compound injection, blood samples are taken to measure time zero glucose. Animals are given an oral dose of glucose of 2 g/kg. Glucose is measured 15, 30, 60, and 120 minutes post the oral glucose challenge. Statistics are analyzed using ANOVA with Dunnett's comparison by JMP 6. Significance is denoted at p≤0.05 vs. vehicle.

[3] = system: DIO mice (C57BL/6); assay: Chronic treatment in DIO mice (body weight, fat, food intake)
Description: The effects on food intake and body weight/fat are evaluated in DIO mice. Five to six months old DIO mice (C57BL/6) from Taconic Biosciences are used in this study. Animals are individually housed in a temperature-controlled (24° C.) facility with a 12 hour light/dark cycle (lights on 6:00), and free access to food and water. The mice are acclimated to the facility for two weeks. The day before the study start, fat mass is measured by nuclear magnetic resonance (NMR) using an Echo Medical System (Houston, Tex.) instrument. The mice are randomized to treatment groups (N=7/group) based on body weight and fat mass so each group had similar starting mean body weight and fat mass. […] SC injections are made on Day 1, 4, 7, 10, and 13. Body weight and food intake are measured right before each injection throughout the study. Percent changes in body weight are calculated as follows: […]
At the completion of the study, total fat mass is measured again by NMR. Statistics are analyzed using ANOVA with Dunnett's comparison by JMP 6. Significance is denoted at p≤0.05 vs. vehicle.

[4] = system: DIO mice (C57BL/6); assay: Acute treatment in DIO mice (PCSK9, FGF-21, cholesterol)
Description: In order to investigate metabolic pathways involved with the treatment of compounds of the present invention independent of weight loss, compounds are tested in DIO mice (C57BL/6) acutely. The mice used are three to four months old on a high fat diet for at least 4 weeks. Animals are individually housed in a temperature-controlled (24° C.) facility with a 12 hour light/dark cycle (lights on 6:00), and free access to food and water. Vehicle or testing compounds were administered to mice by subcutaneous injection at 16:00 the day before the study day. Animals were sacrificed 16 hours later to collect blood via cardia puncture. Statistics are analyzed using ANOVA with Dunnett's comparison for JMP-6. Significance is denoted at p≤0.05 vs vehicle.
Food intake was decreased to a similar level in all treatment groups, which may indicate that changes in cholesterol, PCSK9 and FGF-21 are food-intake independent.

[5] = system: DIO mice (C57BL/6); assay: Effects on energy expenditure in DIO mice (indirect calorimetry); details: for Cumulative Heat (Kcal/kg lean mass/3 day): test article 15 nmol/kg, semaglutide 60 nmol/kg sc every three days
Description: Seven to eight months old male DIO mice (C57BL/6) weighing 45-50 g are used in this study to assess the effect of compounds of the present invention on energy metabolism. Animals are individually housed in a temperature-controlled (24° C.) facility with a 12 hour light/dark cycle (lights on 22:00), and free access to food (TD95217)(Teklad) and water. After 2 weeks acclimation to the facility, mice are randomized to treatment groups (N=6/group) based on body weight so each group has similar starting mean body weight. Animals are placed in a PhenoMaster/LabMaster calorimeter (TSE Systems, Chesterfield, Mo.) for 8 days of acclimation.
Heat and […] (RER) are measured by indirect calorimetry as described using an open-circuit calorimetry system. RER is the ratio of the volume of CO2 produced (VCO2) to the volume of O2 consumed (VO2). Heat is calculated with lean body weight considered. The energy expenditure is kcal/kg/3 day and expressed as mean±SEM of 6 mice per group. Statistical significance is assessed by two-way ANOVA followed by Tukey's multiple comparison test.

[6] = 30 nmol/kg sc every three days for 15 days
[7] = 60 nmol/kg sc every three days for 15 days
[8] = 30 nmol/kg sc, 16 hours post dose

semaglutide [reference compound]
Glucose AUC (% of vehicle) ([1]; 1 nmol/kg sc): 59* % of vehicle
Glucose AUC (% of vehicle) ([1]; 3 nmol/kg sc): 51* % of vehicle
Glucose AUC (% of vehicle) ([1]; 10 nmol/kg sc): 38* % of vehicle
Glucose AUC (% of vehicle) ([2]; 1 nmol/kg sc): 72* % of vehicle
Glucose AUC (% of vehicle) ([2]; 3 nmol/kg sc): 53* % of vehicle
Glucose AUC (% of vehicle) ([2]; 10 nmol/kg sc): 35* % of vehicle
Body Fat (% change vs. vehicle from Day 1) [3, 6]: −20* %
Body Weight (% change vs. vehicle from Day 1) [3, 6]: −8%
Body Fat (% change vs. vehicle from Day 1) [3, 7]: −29* %
Body Weight (% change vs. vehicle from Day 1) [3, 7]: −12* %
Cholesterol (% of vehicle) [4, 8]: 117.6 % of vehicle
FGF-21 (% of vehicle) [4, 8]: 75 % of vehicle
PCSK9 (% of vehicle) [4, 8]: 115.3 % of vehicle
serum cholesterol, PCSK9 and FGF-21 levels ([4]; acute treatment): does not decrease serum cholesterol and PCSK9 levels and increase FGF-21 levels
metabolic rate ([5]; DIO mice, chronic treatment): no effect on metabolic rate
Cumulative Heat (Kcal/kg lean mass/3 day) ([5]; Day 1 to Day 4): 1973 ± 51 Kcal/kg lean mass/3 day
Cumulative Heat (Kcal/kg lean mass/3 day) ([5]; Day 4 to Day 7): 2018 ± 54 Kcal/kg lean mass/3 day
Cumulative Heat (Kcal/kg lean mass/3 day) ([5]; Day 7 to Day 10): 2151 ± 48 Kcal/kg lean mass/3 day
Cumulative Heat (Kcal/kg lean mass/3 day) ([5]; Day 10 to Day 13): 2138 ± 46 Kcal/kg lean mass/3 day
